# Data as given in US20210238225A1, “PEPTIDOMIMETIC INHIBITORS OF THE PEPTIDYL-PROLYL CIS/TRANS ISOMERASE (PIN1)” (DANA-FARBER CANCER INSTITUTE, INC., priority 2018, published 2021).
# Non-standard residues stand in square brackets, D forms with d. Residues, ends and D or L forms follow the SMILES beside them. *: point of attachment. Phe(4-F) = N[C@@H](Cc1ccc(F)cc1)C(=O)O; 2Nal = N[C@@H](Cc1ccc2ccccc2c1)C(=O)O; NH(4-Me-benzyl) = Cc1ccc(CN*)cc1; Cit = NC(=O)NCCC[C@H](N)C(=O)O; Pip = O=C(O)[C@@H]1CCCCN1; X3 = C=CS(=O)(=O)*; ClAc = O=C(CCl)*; X1 = O=C(C1CO1)*
# Tests used:
# Pin1 [1] = molecular target: T1, Pin1 (Homo sapiens, UniProt Q13526); experiment: Lysate target engagement (pull down with biotinylated probes; competition assay); assay type: binding; set-up: endogenous in cells; host or cells: MDA-MB-231; settings: for Lysate Target Engagement?: TNBC-MDA-MB-231 lysate, biotin/dtb probes: pull down, others: competition, concentration under E5; for Lysate Target Engagement? concentration stated for the engagement or pull down: read with the E4 line of the same compound (complete, partial, probe pull down)
# T1 sequence (Q13526 whole entry): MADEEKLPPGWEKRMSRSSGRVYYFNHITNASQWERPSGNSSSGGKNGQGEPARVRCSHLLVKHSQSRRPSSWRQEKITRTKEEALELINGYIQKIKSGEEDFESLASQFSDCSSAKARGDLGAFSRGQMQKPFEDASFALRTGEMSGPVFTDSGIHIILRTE
# Method: (§1) TNBC-MDA-MB-231 cells were lysed in lysis buffer (50 mM Hepes pH 7.5, 150 mM NaCl, 1 mM ethylenediaminetetraacetic acid (EDTA), 10% v/v glycerol, 0.5% v/v NP-40, protease inhibitors (Roche)). After clarifying by centrifugation (14,000 rpm for 15 min at 4° C.), lysates were incubated with the indicated concentrations of candidate compound for 1 hour at 4° C. (500 μg of protein per sample, as determined by BCA). Lysates were then incubated with streptavidin agarose resin (30 μL of 1:1 beads: lysis buffer slurry) (Thermo Scientific™, cat. #20349) for 2 hours at 4° C. Beads were washed 4 times with 500 μL of washing buffer (50 mM Hepes, pH 7.5, 10 mM NaCl, 1 mM EDTA, 10% glycerol), then pelleted by centrifugation and dried. The beads were then boiled at 95° C. for 5 minutes in 30 μL of 2× LDS+10% β-mercaptoethanol. Lysates were probed for specified proteins by western blotting using the Bolt system (Life Technologies™).
# as §1, with “mM EDTA,” for “mM ethylenediaminetetraacetic acid (EDTA),”, “by centrifugation,” for “by centrifugation (14,000 rpm for 15 min at 4° C.),”, “were pre-incubated” for “were incubated”, “of” for “of candidate”, “compound 18 overnight” for “compound for 1 hour”, “BCA). The lysates were then incubated with 1 μM of compound 2c (desthiobiotin probe) for 1 hour at 4° C.” for “BCA).”
# Pin1 [2] = molecular target: T1, Pin1; experiment: Cellular target engagement, live cell biotin competition assay in TNBC MDA-MB-231 cells; assay type: cell-based; set-up: endogenous in cells; host or cells: MDA-MB-231; settings: TNBC MDA-MB-231 cells; for Cellular Target Engagement?: 5 hours treatment, concentration under E7
# Method: TNBC MDA-MB-231 cells were plated in 10 cm plates with 2.5 million cells per plate in 6 mL of media. The day after plating, cells were treated with the indicated concentrations of compound 18 for 5 hours. The cells were washed 2× with 0.9% NaCl (1 mL per 10 cm plate), and collected by scraping with a cell scraper. Cells were lysed in lysis buffer (50 mM Hepes pH 7.5, 150 mM NaCl, 1 mM EDTA, 10% v/v glycerol, 0.5% v/v […], protease inhibitors (Roche)) using 210 μL of cell lysis buffer per 10 cm plate of cells. After clarifying by centrifugation (14,000 rpm for 15 min at 4° C.), 5 μL of each lysate sample was combined with 5 μL of 2× LDS+10% β-mercaptoethanol, boiled for 5 minutes, and set aside for the input loading control (later to be loaded directly in the gel). Then, 200 μL of each lysate was then incubated with 1 μM of compound 2-32 (biotin probe compound) for 1 hour at 4° C. Lysates were then incubated with streptavidin agarose resin (30 μL of 1:1 beads: lysis buffer slurry) (Thermo Scientific™, cat. #20349) for 2 hours at 4° C. Beads were washed 4 times with 500 μL of washing buffer (50 mM Hepes, pH7.5, 10 mM NaCl, 1 mM EDTA, 10% glycerol), then pelleted by centrifugation and dried. The beads were then boiled at 95° C. for 5 minutes in 30 μL of 2× LDS+10% β-mercaptoethanol. Lysates were probed for specified proteins by western blotting using the Bolt system (Life Technologies™).
# Pin1 (GST-Pin1) = Pin1 (GST-Pin1) (Homo sapiens, UniProt Q13526); experiment: Fluorescence polarization (FP) assay, binding to Pin1; settings: competition with fluorescein-labeled peptide probe; 12 hours pre-incubation at 4° C.; Kenakin Ki equation; read-out: Ki, μM (FP Assay)
# Chain of Pin1 (GST-Pin1) (Q13526 whole entry): as above
# Pin1 Cys 113 = Pin1 Cys 113 (Homo sapiens, UniProt Q13526); experiment: Covalent labeling (intact MS); assay type: binding; settings: purified Pin1 with 5 μM inhibitor, 0-3 hr
# Chain of Pin1 Cys 113 (Q13526 whole entry): as above
# Method: 5 μg of purified Pin1 protein in 50 μL of 20 mM HEPES pH 7.5 and 75 mM NaCl was incubated with 5 μM of respective Pin1 inhibitors for 0-3 hr. A Shimadzu XR HPLC was used to inject the entire sample onto a self-packed reverse-phase column (1/32 in outer diameter×500 μm inner diameter, 5 cm of POROS 50R2 resin). After desalting, protein was eluted with an HPLC gradient (0%-100% B in 4 min, A=0.2 M acetic acid in water, B=0.2 M acetic acid in acetonitrile, flow rate=10 μl/min) into a LTQ XL mass spectrometer (Thermo Fisher Scientific, San Jose, Calif., USA). LTQ XL MS spectra were acquired in centroid mode using the electron multipliers for ion detection. Mass spectra were deconvoluted using MagTran1.03b2 software (Zhang and Marshall, J. Am. Soc. Mass Spectrom. 9:225-233 (1998)).
Compound,Lysate Target Engagement? (Pin1 [1]),Lysate Target Engagement? concentration stated for the engagement or pull down (Pin1 [1]),Cellular Target Engagement? (Pin1 [2]),Ki (Pin1 (GST-Pin1)) [µM],"Covalent? (In tact MS), % labeling (Pin1 Cys 113)",Cellular Target Engagement? concentration stated for complete engagement (Pin1 [2]; read with the E6 line)
"COC(=O)CC[C@H](NC(=O)CCl)C(=O)N1CCCC[C@H]1C(=O)N[C@@H](Cc1ccc2ccccc2c1)C(=O)N[C@@H](CCCNC(N)=O)C(N)=O [Compound 2-11, Methyl (S)-5-((S)-2-(((S)-1-(((S)-1-amino-1-oxo-5-ureidopentan-2-yl)amino)-3-(naphthalen-2-yl)-1-oxopropan-2-yl)carbamoyl)piperidin-1-yl)-4-(2-chloroacetamido)-5-oxopentanoate] (ClAc-E(OMe)[Pip][2Nal][Cit]-NH2)",Yes-complete,by 10 μM,No,0.06,,
"NC(=O)[C@H](Cc1ccc(F)cc1)NC(=O)[C@H](Cc1c[nH]c2ccccc12)NC(=O)[C@@H]1CCCCN1C(=O)[C@H](CCC(=O)O)NC(=O)CCl [Compound 2-27, (S)-5-((S)-2-(((S)-1-(((S)-1-Amino-3-(4-fluorophenyl)-1-oxopropan-2-yl)amino)-3-(1H-indol-3-yl)-1-oxopropan-2-yl)carbamoyl)piperidin-1-yl)-4-(2-chloroacetamido)-5-oxopentanoic acid] (ClAc-E[Pip]W[Phe(4-F)]-NH2)",Yes-partial,at 10 μM,No,0.075,,
"NC(=O)NCCC[C@H](NC(=O)[C@H](Cc1c[nH]c2ccccc12)NC(=O)[C@@H]1CCCCN1C(=O)[C@H](CCC(=O)O)NC(=O)CCl)C(N)=O [Compound 2b-18, (S)-5-((S)-2-(((S)-1-(((S)-1-Amino-1-oxo-5-ureidopentan-2-yl)amino)-3-(1H-indol-3-yl)-1-oxopropan-2-yl)carbamoyl)piperidin-1-yl)-4-(2-chloroacetamido)-5-oxopentanoic acid] (ClAc-E[Pip]W[Cit]-NH2)",Yes-Complete,at 5 μM,No,,,
"NC(=O)NCCC[C@H](NC(=O)[C@H](Cc1ccc2ccccc2c1)NC(=O)[C@@H]1CCCCN1C(=O)[C@H](CCC(=O)O)NC(=O)C1CO1)C(N)=O (stereo partly drawn) [Compound 3b-1, (4S)-5-((S)-2-(((S)-1-(((S)-1-Amino-1-oxo-5-ureidopentan-2-yl)amino)-3-(naphthalen-2-yl)-1-oxopropan-2-yl)carbamoyl)piperidin-1-yl)-4-(oxirane-2-carboxamido)-5-oxopentanoic acid] (X1-E[Pip][2Nal][Cit]-NH2)",No,,No,1.61,Yes (93%,
"C=CS(=O)(=O)N[C@@H](CCC(=O)O)C(=O)N1CCCC[C@H]1C(=O)N[C@@H](Cc1ccc2ccccc2c1)C(=O)N[C@@H](CCCNC(N)=O)C(N)=O [Compound 4, (S)-5-((S)-2-(((S)-1-(((S)-1-Amino-1-oxo-5-ureidopentan-2-yl)amino)-3-(naphthalen-2-yl)-1-oxopropan-2-yl)carbamoyl)piperidin-1-yl)-5-oxo-4(vinylsulfonamido)pentanoic acid] (X3-E[Pip][2Nal][Cit]-NH2)",No,,,0.35,Yes (93%,
"COC(=O)CC[C@H](NC(=O)CCl)C(=O)N1CCCC[C@H]1C(=O)N[C@@H](Cc1c[nH]c2ccccc12)C(=O)N[C@@H](Cc1ccc(O)cc1)C(=O)NCc1ccc(C)cc1 [Compound 11-1, Methyl (S)-4-(2-chloroacetamido)-5-((S)-2-(((S)-1-(((S)-3-(4-hydroxyphenyl)-1-((4-methyl-benzyl)amino)-1-oxopropan-2-yl)amino)-3-(1H-indol-3-yl)-1-oxopropan-2-yl)carbamoyl)piperidin-1-yl)-5-oxopentanoate]",No,,No,0.176,,
"COC(=O)CC[C@H](NC(=O)CCl)C(=O)N1CCCC[C@H]1C(=O)N[C@@H](Cc1c[nH]c2ccccc12)C(=O)N[C@@H](Cc1c[nH]c2ccccc12)C(=O)NCc1ccc(C)cc1 [Compound 11-2, Methyl (S)-5-((S)-2-(((S)-1-(((S)-3-(1H-indol-3-yl)-1-((4-methylbenzyl)amino)-1-oxopropan-2-yl)amino)-3-(1H-indol-3-yl)-1-oxopropan-2-yl)carbamoyl)piperidin-1-yl)-4-(2-chloroacetamido)-5-oxopentanoate] (ClAc-E(OMe)[Pip]WW-{NH(4-Me-benzyl)})",No,,No,> 10,,
"Cc1ccc(CNC(=O)[C@H](CCCNC(N)=O)NC(=O)[C@H](Cc2c[nH]c3ccccc23)NC(=O)[C@@H]2CCCCN2C(=O)[C@H](Cc2ccccc2)NC(=O)CCl)cc1 [Compound 11-23, (S)—N—((S)-3-(1H-indol-3-yl)-1-(((S)-1-((4-methylbenzyl)amino)-1-oxo-5-ureidopentan-2-yl)amino)-1-oxopropan-2-yl)-1-((2-chloroacetyl)-L-phenylalanyl)piperidine-2-carboxamide] (ClAc-F[Pip]W[Cit]-{NH(4-Me-benzyl)})",,,Yes-Complete,0.004,Yes (100%,at 10 μM
